From article PMC6267684, “Pharmacokinetic evaluation of the PNC disassembler metarrestin in wild-type and Pdx1-Cre;LSL-Kras^G12D/+;Tp53^R172H/+ (KPC) mice, a genetically engineered model of pancreatic cancer” (Cancer Chemotherapy and Pharmacology, 2018)

Assays:
[1] = system: PNC in PC3M cells; experiment: PNC disassembly assay in PC3M cells; type: cell-based; conditions: PC3M (PTB-GFP) cells
Description: The PNC disassembly assay has been previously described. […] Cells were fixed with […] for 10 min at room temperature. […] Confocal images were obtained using Opera Phoenix (PerkinElmer, Waltham, MA) and a 20× objective lens.
To examine whether measured intratumor metarrestin concentrations measured in PK studies track with intracellular metarrestin concentration, we first decided to synthesize a fluorophore conjugated analog of metarrestin. Structure activity relationship studies around the structure of metarrestin were conducted in a high throughput assay that measured in dose dependence the ability of compounds to reducing PNC prevalence in PC3M cells. […] This analog was chemically conjugated to the fluorophore boron-dipyrromethene (BODIPY®) to track the disassembly of the PNC in PC3M cancer cells by confocal microscopy (Suppl. Figure 2). […] Next, to examine cellular metarrestin levels in relation to extracellular concentrations, we exposed KPC and PC3M cells at 1 and 10 µM concentrations of metarrestin and harvested cells at different timepoints.

[2] = system: FOXA1 mRNA; experiment: FOXA1 mRNA expression in KPC tumors (RNA-seq, qRT-PCR); type: in vivo, KPC mice; conditions: vs intratumor exposure
Description: Pancreas cancer tissues samples or adjacent, uninvolved normal pancreas from vehicle or metarrestin-treated KPC animals collected at 0, 3, and 9 h after last dose of 25 mg/kg metarrestin were homogenized in PureLink Lysis Buffer (PureLink RNA Mini Kit, ThermoFisher Scientific Waltham, MA) at 4 °C using a TissueLyser II bead mill (Qiagen, Valencia, CA, manufactured by Retsch, Newtown, PA). Total RNA was isolated using the Life Technologies PureLink® RNA Mini Kit, quantified on a NanoDrop 1000 spectrophotometer (ThermoFisher Scientific, Waltham, MA). […]
Total RNA libraries were prepared using the Illumina TruSeq® Stranded Total RNA LT (with Ribo-Zero™Human/Mouse/Rat) kit according the manufacturer’s instructions. […] Sequencing output ranged from 89 to 132 million reads per sample. Adapter trimming and base filtering was done using Trimmomatic software version 0.3, and the trimmed reads were aligned to mouse reference genome (GRCm38/mm10) and Ensembl annotation (version 70) using TopHat2 version 2.0.8.
A total of 450 ng of total RNA was used for single-strand complementary DNA synthesis using a SuperScript III First-Strand kit (Invitrogen, Carlsbad, CA). […] Reaction products were read in a Bio-Rad CFX96 Touch real-time PCR detection system (Bio-Rad Laboratories, Hercules, CA). […]

[3] = Preliminary toxicity profile, 25 mg/kg PO gavage for 14 days; conditions: for ALP (alkaline phosphatase) / ALT (alanine transaminase) / AST (aspartate transaminase): in U/L (unit assumed); for Weight: in g (unit assumed)
[4] = females, 25 mg/kg, 14 days, in g/dL (unit assumed)
[5] = females, N=10, 25 mg/kg, number of animals
[6] = males, N=10, 25 mg/kg, number of animals

N=c1c2c(-c3ccccc3)c(-c3ccccc3)n(Cc3ccccc3)c2ncn1[C@H]1CC[C@H](O)CC1 [metarrestin, Trans-4-(7-benzyl-4-imino-5,6-diphenyl-4,7-dihydro-3H-pyrrolo[2,3-d]pyrimidin-3-yl) cyclohexanol]
IC50 ([1]; Homo sapiens, PC-3M): 400 nM
IC50 [1]: 397 nM
FOXA1 mRNA expression in KPC tumors [2]: Dose-dependent normalization
body weight, hypoactivity, liver function tests compared to vehicle controls ([3]; daily 25 mg/kg by oral gavage for 14 days): not associated with any change in body weight, hypoactivity, or change in liver function tests
CHOL (cholesterol) ([3]; females, 25 mg/kg, 14 days): 123 ± 18.4
LD (lactate dehydrogenase) ([3]; females, 25 mg/kg, 14 days): 495 ± 89.7
ALP (alkaline phosphatase) ([3]; females, 25 mg/kg, 14 days): 136 ± 13.8
ALT (alanine transaminase) ([3]; females, 25 mg/kg, 14 days): 100 ± 47.6
AST (aspartate transaminase) ([3]; females, 25 mg/kg, 14 days): 100 ± 28.3
GLOB (globulin) [3, 4]: 2.1 ± 0.13
TP (total protein) [3, 4]: 5.2 ± 0.21
Weight ([3]; females, Day 1, 25 mg/kg): 23.1 ± 1.55
Weight Change ([3]; females, Day 1 to 4, 25 mg/kg): 0.0 ± 0.80
Weight Change ([3]; females, Day 1 to 15, 25 mg/kg): 2.7 ± 1.04
Weight Change ([3]; females, Day 4 to 7, 25 mg/kg): 1.2 ±0.67
Weight ([3]; females, Day 7, 25 mg/kg): 24.3 ± 1.32
Weight ([3]; females, Day 15, 25 mg/kg): 25.8 ± 1.70
Death [3, 5]: 0
Rough coat [3, 5]: 0
Scant feces [3, 5]: 0
CRE (creatinine) ([3]; males, 25 mg/kg, 14 days): 0.09 ± 0.015
P04 (phosphorus) ([3]; males, 25 mg/kg, 14 days): 10.2 ± 0.50
ALP (alkaline phosphatase) ([3]; males, 25 mg/kg, 14 days): 84 ± 13.5
ALT (alanine transaminase) ([3]; males, 25 mg/kg, 14 days): 137 ± 67.4
AST (aspartate transaminase) ([3]; males, 25 mg/kg, 14 days): 88 ± 24.3
K (potassium) ([3]; males, 25 mg/kg, 14 days, in mmol/L (unit assumed)): 7.3 ± 0.21
Weight ([3]; males, Day 1, 25 mg/kg): 31.4 ± 1.38
Weight Change ([3]; males, Day 1 to 4, 25 mg/kg): 1.1 ± 0.90
Weight Change ([3]; males, Day 1 to 15, 25 mg/kg): 3.1 ± 1.51
Weight Change ([3]; males, Day 4 to 7, 25 mg/kg): 0.9 ± 0.59
Weight ([3]; males, Day 7, 25 mg/kg): 33.3 ± 2.02
Weight ([3]; males, Day 15, 25 mg/kg): 34.4 ± 2.33
Cold to touch [3, 6]: 0
Death [3, 6]: 0
Hypoactivity [3, 6]: 0
Rough coat [3, 6]: 6
Scant feces [3, 6]: 0
Thin [3, 6]: 0
